Measured values as given in patent US6689887B2, “Inhibition of human telomerase by a G-quadruplex-interaction compound” (Board of Regents, The University of Texas System, priority 1998, dated 2004).
pIC50: −log10 of the molar value.

Tests used:
[1] = tested on: G-quadruplex of HT4 template (four repeats of TTAGGG); experiment: DNA synthesis arrest assay with BSU-1051, HT4 template; format: biochemical, human
Procedure: (§1) This assay is a modification of that described by Weitzmann and co-workers (Weitzmann et al., 1996). Briefly, primers (P18, 24 nM) labeled with [γ-^32P] were mixed with template DNA (12 nM)) in a Tris-HCl buffer (10 mM Tris, pH 8.0) containing K^+ (5 mM for the PQ74 template and 50 mM for the HT4 template) and denatured by heating at 90° C. for 5 min. After cooling down to room temperature, BSU-1051 was added at various concentrations and incubated at room temperature for 15 min. The primer extension reactions were initiated by adding dNTP (final concentration 100 μM), MgCl2 (final concentration […]), and Taq DNA polymerase (2.5 U/reaction, Boehringer Mannheim). For sequencing reactions, the TaqTrack Sequencing System (Promega, Wis., Madison) was used. The sequencing reaction buffer was changed to 50 mM Tris-HCl, pH 9.0, 10 mM MgCl, and 50 mM K^+. The reactions were stopped by adding an equal volume of stop buffer (95% formamide, 10 mM EDTA, 10 mM NaOH, 0.1% xylene cyanol, 0.1% bromphenol blue). For the temperature-dependent studies, the ligand concentration was fixed and the primer extension reactions were carried out at the temperatures indicated in methods. The products were separated on a 12% polyacrylamide sequencing gel. The gels were then dried and visualized on a PhosphorImager (Molecular Dynamics model 445 S1). […]

[2] = tested on: 7-deaza-dG substituted HT4 and PQ74 templates; experiment: Primer extension on 7-deaza-dG substituted templates; format: biochemical; settings: BSU-1051 up to 50 μM
Procedure: as §1

[3] = tested on: G-quadruplex of PQ74 template (four repeats of TTGGGG); experiment: DNA synthesis arrest assay with BSU-1051, PQ74 template; format: biochemical
Procedure: This assay is a modification of that described by Weitzmann and co-workers (Weitzmann et al., 1996). Briefly, primers (P18, 24 nM) labeled with [γ-^32P] were mixed with template DNA (12 nM)) in a Tris-HCl buffer (10 mM Tris, pH 8.0) containing K^+ (5 mM for the PQ74 template and 50 mM for the HT4 template) and denatured by heating at 90° C. for 5 min. After cooling down to room temperature, BSU-1051 was added at various concentrations and incubated at room temperature for 15 min. The primer extension reactions were initiated by adding dNTP (final concentration 100 μM), MgCl2 (final concentration […]), and Taq DNA polymerase (2.5 U/reaction, Boehringer Mannheim). For sequencing reactions, the TaqTrack Sequencing System (Promega, Wis., Madison) was used. The sequencing reaction buffer was changed to 50 mM Tris-HCl, pH 9.0, 10 mM MgCl, and 50 mM K^+. The reactions were stopped by adding an equal volume of stop buffer (95% formamide, 10 mM EDTA, 10 mM NaOH, 0.1% xylene cyanol, 0.1% bromphenol blue). For the temperature-dependent studies, the ligand concentration was fixed and the primer extension reactions were carried out at the temperatures indicated in methods. The products were separated on a 12% polyacrylamide sequencing gel. The gels were then dried and visualized on a PhosphorImager (Molecular Dynamics model 445 S1).
Although it has been shown that G-quadruplex structures block primer extension by DNA polymerase in a K^+ dependent manner (Weitzmann et at., 1996), the inventors are unaware of any reports showing enhanced blockage by G-quadruplex—interactive agents. To determine if BSU-1051 binding to G-quadruplex enhances the block to DNA synthesis, primer extension reactions were carried out in the absence and presence of BSU-1051. Taq DNA polymerase primer extension on DNA templates containing four repeats of either TTGGGG (SEQ ID No. 7) (PQ74) or TTAGGG (SEQ ID No. 1) (HT4) in the presence of different concentrations of BSU-1051 at 55° C. were performed. […]

BT-20 = experiment: MTT cytotoxicity assay, BT-20; format: cell-based, human; settings: BT-20, 72 hours
Procedure: (§2) The ability of these compounds to inhibit the proliferative capacity of human cancer cells was determined by a standard MTT assay. Briefly, cells were incubated for 72 hours in the presence of various concentrations of compound, and the cell viability was determined by monitoring the formation of a colored formazan salt of the tetrazolium salt 3-(4,5-dimethylthiazol-2-yl)-2,5-diphenyl tetrazolium bromide (MTT) by viable cells.

d(TTAGGGT)4 G-quadruplex = experiment: UV/VIS spectroscopy titration with G-quadruplex; format: binding, human; settings: 20 μM compound, 0-80 μM quadruplex, overnight, pH 7.0
Procedure: (B) Compounds may be selected for their ability to interact with human DNA G-quadruplex as indicated by UV/VIS spectroscopy. To a 10 μM solution of N,N′-bis(2-dimethylaminoethyl)-3,4,9,10-perylenetetracarboxylic acid diimide in 20 mM phosphate buffer containing 100 mM KCl, pH 7.0 in a quartz cuvette was added 10 μL aliquots of a 3 mM solution of d(TTAGGGT)4 (SEQ ID No. 6). After each addition the UV/VIS spectrum was recorded.
(§3) The N,N′-bis(3-morpholinopropyl)3,4,9,10-perylenetetracarboxilic acid diimide (KeTEL01) was synthesized from 3,4,9,10-perylenetetracarboxylic acid dianhydride and 3-morpholinopropylamine using a procedure analogous to that described above in example 5.3 for the synthesis of N,N′-bis(2-piperdinoethyl)-3,4,9,10-perylenetetracarboxylic acid diimide. A solution of KeTEL01 was prepared by dissolving 1 mg of KeTEL01 in 300 μL of 1 N HCl. To this solution was added 11 mL of a pH 7.0 buffer containing 20 mM sodium phosphate, 100 mM KCl, 1 mM EDTA, and 0.02% hydroxypropyl-β-cyclodextrin. Aliquots of this stock solution of KeTEL01 were transferred to 8 different quartz cuvettes and diluted into pH 7.0 mM sodium phosphate, 100 mM KCl, 1 mM EDTA buffer to afford solutions in which the concentration of KeTEL01 was 20 μM. To each of the cuvettes was added a solution of [d(TTAGGGT)]4 (SEQ ID No. 6) so that the final concentration of [d(TTAGGGT)]4 (SEQ ID No. 6) in each of the cuvettes was 0, 4, 8, 12, 16, 20, 50, and 80 μM. These solutions were allowed to stand overnight in the dark, and the UV/VIS spectrum of each was determined. […] In a parallel study, changes in the UV/VIS spectrum of a 20 μM solution of KeTEL01 in a pH 7.0 20 mM phosphate buffer containing 100 mM KCl and 1 mM EDTA were determined upon the addition of […] aliquots of a 3 mM (base pair) solution of calf thymus DNA.

PC-3 = experiment: MTT cytotoxicity assay, PC-3; format: cell-based, human; settings: PC-3, 72 hours
Procedure: as §2

human cancer cells = experiment: MTT assay, human cancer cell lines; format: cell-based; settings: 72 hours; highest concentration tested 100 μM
Procedure: as §2

MCF-7 = experiment: MTT cytotoxicity assay, MCF-7; format: cell-based, human; settings: MCF-7, 72 hours
Procedure: as §2

[4] = tested on: [d(TTAGGGT)]4 G-quadruplex; experiment: Kinetics of interaction with G-quadruplex DNA (absorption at 488 nm); format: binding, human; settings: 5 μM compound, 50 μM quadruplex, pH 7.0
Procedure: A solution of 5 μM KeTEL01 in 20 mM phosphate buffer, 100 mM KCl, pH 7.0 was placed in a quartz cuvette and the UV/VIS spectrum determined. An aliquot of a solution of [d(TTAGGGT)]4 (SEQ ID No. 6) was added to the cuvette to afford a final concentration of 50 μM. The cuvette was quickly inverted several times and placed in the spectrophotometer. The absorption of the sample at 488 nm was continuously monitored for 3 hours, during which time, the absorption decreased in a multiexponential function. The time required for the absorption at 488 nm to reach one-half of its equilibrium value was 60 mm.

Raji = experiment: MTT cytotoxicity assay, Raji; format: cell-based, human; settings: 72 hours
Procedure: as §2

[5] = tested on: calf thymus DNA (double-stranded DNA); experiment: UV/VIS spectroscopy with double-stranded DNA; format: binding; settings: 20 μM compound, pH 7.0, 100 mM KCl
Procedure: as §3

d(TTAGGG)4 G-quadruplex = experiment: NMR imino proton titration of G-quadruplex; format: binding, human; settings: overall stoichiometry 1:1, 500 MHz
Procedure: (C) Compounds may be selected for their ability to interact with human DNA G-quadruplex as indicated by NMR spectroscopy. The imino proton spectrum (9-12 ppm) of a solution of d(TTAGGG)4 (SEQ ID No. 1) in D2O/H2O (10:90) was determined at 500 MHz. Aliquot of N,N′-bis(2-piperdinoethyl)-3,4,9,10-perylenetetracarboxylic acid diimide were added and the imino proton spectrum recorded.

[6] = tested on: G-quadruplex in template DNA PQ74; experiment: DNA Synthesis Arrest Assay (Taq polymerase primer extension, PQ74 template); format: biochemical
Procedure: It has been shown that DNA sequences with quadruplex-forming potential present obstacles to DNA synthesis by DNA polymerases in a K^+ dependent manner. This K^+ dependent block to DNA polymerase is a selective and sensitive indicator of the formation of intramolecular quadruplexes (Weitzmann, et al., 1996).
The assay is a modification of that described by Weitzmann, et al. Briefly, primers (24 nM, sequence: 5′-TAATACGACTCACTATAG-3′) (SEQ ID No. 9) labeled with [γ-^32P]ATP were mixed with template DNA PQ74(12 nM, sequence: […] […]-3′) (SEQ ID No. 10) in a Tris-HCl buffer (10 mM Tris, pH 8.0) containing 5 mM K^+ and heated at 90° C. for 4 mm. After cooling at room temperature for 15 mm. potential G-quadruplex-interactive compounds were then added to various concentrations. The primer extension reactions were initiated by adding dNTP (final concentration 100 μM), MgCl2 (final concentration 3 mM) and Taq polymerase (2.5 U/reaction, Boehringer Mannheim). The reactions were incubated at 55° C. for 15 mm. then stopped by adding an equal volume of stop buffer (95% formamide, 10 mM EDTA; 10 mM NaGH, 0.1% xylene cyanol. 0.1% bromophenol blue). The products were separated on a 12% polyacrylamide sequencing gel. The gels were then dried and visualized on a phosphorimager (Molecular Dynamics model 445 S1).
Using the DOCK screening methods above, the carbocyanine group of compounds were identified as potential G-quadruplex interactive agents. […] Each compound was assayed at a concentration of 20 μM.

telomerase = experiment: Standard telomerase primer extension assay without PCR amplification; format: biochemical, human; settings: at 50 μM, confirmatory tests
Procedure: The identified inhibitors may be used therapeutically to interfere with the function of telomerase and thus to treat cancers.
Briefly, the 18-mer telomeric primer d[TTAGGG]3 (SEQ ID No. 1) (1 μM) without or with N,N′-bis(2-dimethylaminoethyl)-3,4,9,10-perylenetetracarboxylic acid diimide was elongated with telomerase in the presence of 1.5 μM of [α-^32P]-dGTP (800 Ci mmol^−1, 10 mCi ml^−1) with 1 mM dATP and 1 mM dTTP. The extension products were isolated and visualized by autoradiography after denaturing gel electrophoresis.

C[N+]1(CCC(=O)Nc2ccc3c(c2)C(=O)c2ccc(NC(=O)CC[N+]4(C)CCCCC4CO)cc2C3=O)CCCCC1CO.[I-].[I-] (stereo not drawn) [BSU-1051]
ΔTm of G-quadruplex ([1]; 20 μM BSU-1051): about 20 °C | temperature up to which polymerase pausing is observed ([1]; in the presence of BSU-1051, without ligand pausing fades out at 55° C.): 65 °C | polymerase pausing on 7-deaza-dG substituted templates [2]: no significant pausing | ΔTm of G-quadruplex ([3]; 20 μM BSU-1051): about 20 °C | temperature up to which polymerase pausing is observed ([3]; 20 μM BSU-1051, without ligand pausing almost lost at around 65° C.): 74 °C | primer extension by Taq DNA polymerase ([3]; 100 μM BSU-1051, 55° C., PQ74 or HT4 template): completely inhibited

O=C1c2ccc3c4ccc5c6c(ccc(c7ccc(c2c37)C(=O)N1CCCN1CCOCC1)c64)C(=O)N(CCCN1CCOCC1)C5=O [KeTEL01, N,N′-bis(3-morpholinopropyl)3,4,9,10-perylenetetracarboxilic acid diimide]
pIC50 (BT-20): < 4.00 | hyperchromicity at 510 nm (d(TTAGGGT)4 G-quadruplex): ~40% | hyperchromicity at 548 nm (d(TTAGGGT)4 G-quadruplex): ~100% | hypochromicity at 488 nm (d(TTAGGGT)4 G-quadruplex): ~40% | pIC50 (PC-3): < 4.00 | cytotoxic effect, MTT (human cancer cells): no cytotoxic effect | pIC50 (MCF-7): < 4.00 | time required for absorption at 488 nm to reach one-half of its equilibrium value [4]: 60 min | pIC50 (Raji): < 4.00 | changes in the UV/VIS spectrum upon addition of calf thymus DNA [5]: No changes

O=C1c2ccc3c4ccc5c6c(ccc(c7ccc(c2c37)C(=O)N1CCN1CCCCC1)c64)C(=O)N(CCN1CCCCC1)C5=O [N,N′-bis(2-piperdinoethyl)-3,4,9,10-perylenetetracarboxylic acid diimide]
upfield shift of G6 imino resonance (d(TTAGGG)4 G-quadruplex): > 0.2 ppm | DNA synthesis arrest (FIG. 8) ([6]; 0.5-50 μM, PQ sequence): DNA synthesis arrest

CCN1/C(=C/C=C/c2sc3ccccc3[n+]2CC)Sc2ccccc21.[I-] [UT-SK-002, diethylthiocarbocyanine iodide]
inhibition of telomerase (telomerase): 10-35% | Stop (F + P)rel: relative amount of both full-length and paused products ([6]; compound 20 μM): 88% | Stop (P/T)rel: relative ratio of paused products to total products ([6]; compound 20 μM): 139%
